± gives the standard deviation of the averaged measurements.
Compound: CC(=O)N1CCc2c(c(N3CCCc4cc(-c5cnn(C)c5)c(C(F)F)cc43)nn2C2CCC(CN3CCN(c4ccc5c(c4)C(=O)N(C4CCC(=O)NC4=O)C5=O)CC3)CC2)C1 [CBPD-409]
Assay: AUC of viability dose-response curve (relative to vehicle, 8 doses up to 10 µM) (fraction); higher = less sensitive (more viable); extreme values may be limits of the assay
Experimental: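 PRISM multiplexed pooled barcoded cell line viability screen at the Broad Institute, 887 cancer cell lines treated with CBPD-409 (p300/CBP PROTAC degrader) at 8 concentrations in threefold dilution, top dose 10 µM. The read-out is the area under the dose-response curve of relative viability versus vehicle (n=3). AUC < 0.3 is called strongly sensitive and AUC > 0.8 resistant.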

Row | Test System | AUC of viability dose-response curve
1 | OCIC5X_OVARY | 0.69
2 | OCILY3_HAEMATOPOIETIC_AND_LYMPHOID_TISSUE | 0.617
3 | OCILY18_HAEMATOPOIETIC_AND_LYMPHOID_TISSUE | 0.451
4 | OCILY19_HAEMATOPOIETIC_AND_LYMPHOID_TISSUE | 0.725
5 | OCILY132_HAEMATOPOIETIC_AND_LYMPHOID_TISSUE | 1
6 | OCIM1_HAEMATOPOIETIC_AND_LYMPHOID_TISSUE | 0.286
7 | OCIP5X_OVARY | 1
8 | OCUG1_BILIARY_TRACT | 1
9 | OE19_OESOPHAGUS | 0.884
10 | OE21_OESOPHAGUS | 1
11 | OE33_OESOPHAGUS | 0.776
12 | ONCODG1_OVARY | 1
13 | ONDA9_CENTRAL_NERVOUS_SYSTEM | 1
14 | ONS76_CENTRAL_NERVOUS_SYSTEM | 0.922 ± 0.11
15 | OSC20_UPPER_AERODIGESTIVE_TRACT | 0.936
16 | OSRC2_KIDNEY | 1
17 | OV7_OVARY | 1
18 | OV17R_OVARY | 0.712
19 | OV56_OVARY | 1
20 | OVCAR8_OVARY | 0.486
21 | OVISE_OVARY | 1
22 | OVK18_OVARY | 0.365

Row | Test System | AUC of viability dose-response curve
23 | OVKATE_OVARY | 1
24 | OVTOKO_OVARY | 0.781
25 | OZ_BILIARY_TRACT | 0.851
26 | P12ICHIKAWA_HAEMATOPOIETIC_AND_LYMPHOID_TISSUE | 0.739
27 | PA1_OVARY | 1
28 | PACADD119_PANCREAS | 0.991
29 | PACADD137_PANCREAS | 0.587
30 | PACADD161_PANCREAS | 0.652
31 | PANC1_PANCREAS | 0.999
32 | PANC0203_PANCREAS | 0.751
33 | PANC0327_PANCREAS | 1
34 | PANC0403_PANCREAS | 0.725
35 | PANC0504_PANCREAS | 0.671
36 | PANC0813_PANCREAS | 0.953
37 | PANC1005_PANCREAS | 1
38 | PATU8902_PANCREAS | 0.689
39 | PATU8988S_PANCREAS | 0.253
40 | PATU8988T_PANCREAS | 0.499
41 | PC3_PROSTATE | 0.763
42 | PC14_LUNG | 0.877
43 | PEA1_OVARY | 0.845
44 | PECAPJ15_UPPER_AERODIGESTIVE_TRACT | 0.917

Row | Test System | AUC of viability dose-response curve
45 | PECAPJ41CLONED2_UPPER_AERODIGESTIVE_TRACT | 0.662
46 | PECAPJ49_UPPER_AERODIGESTIVE_TRACT | 0.455
47 | PEDS005TSUSP_KIDNEY | 0.309
48 | PF382_HAEMATOPOIETIC_AND_LYMPHOID_TISSUE | 0.566
49 | PFSK1_CENTRAL_NERVOUS_SYSTEM | 0.531
50 | PK1_PANCREAS | 0.685
51 | PK8_PANCREAS | 0.556
52 | PK45H_PANCREAS | 1
53 | PK59_PANCREAS | 0.694
54 | PL21_HAEMATOPOIETIC_AND_LYMPHOID_TISSUE | 0.499
55 | PLCPRF5_LIVER | 1
56 | PMFKO14_LARGE_INTESTINE | 0.705
57 | PSN1_PANCREAS | 0.639
58 | QGP1_PANCREAS | 0.661
59 | RBE_BILIARY_TRACT | 1
60 | RCC10RGB_KIDNEY | 1
61 | RCHACV_HAEMATOPOIETIC_AND_LYMPHOID_TISSUE | 0.298
62 | RCK8_HAEMATOPOIETIC_AND_LYMPHOID_TISSUE | 0.633
63 | RCM1_LARGE_INTESTINE | 1
64 | RDES_BONE | 0.484
65 | RD_SOFT_TISSUE | 0.657 ± 0.29
66 | RERFGC1B_STOMACH | 0.993

Row | Test System | AUC of viability dose-response curve
67 | RERFLCAD1_LUNG | 1
68 | RERFLCAD2_LUNG | 0.946
69 | RERFLCAI_LUNG | 0.913
70 | RERFLCKJ_LUNG | 1
71 | RERFLCMS_LUNG | 0.837
72 | RH4_SOFT_TISSUE | 0.308
73 | RH28_SOFT_TISSUE | 0.625
74 | RH30_SOFT_TISSUE | 0.841 ± 0.22
75 | RH36_SOFT_TISSUE | 0.779
76 | RHJT_SOFT_TISSUE | 0.512
77 | RI1_HAEMATOPOIETIC_AND_LYMPHOID_TISSUE | 0.424
78 | RKN_SOFT_TISSUE | 1
79 | RKO_LARGE_INTESTINE | 0.854
80 | RL952_ENDOMETRIUM | 0.996
81 | RL_HAEMATOPOIETIC_AND_LYMPHOID_TISSUE | 0.651
82 | RMGI_OVARY | 0.73
83 | RMSYM_SOFT_TISSUE | 0.394
84 | RMUGS_OVARY | 0.866
85 | RO82W1_THYROID | 1
86 | RPMI7951_SKIN | 1
87 | RPMI8402_HAEMATOPOIETIC_AND_LYMPHOID_TISSUE | 0.266
88 | RT4_URINARY_TRACT | 0.887

Row | Test System | AUC of viability dose-response curve
89 | RT112_URINARY_TRACT | 0.83
90 | RVH421_SKIN | 0.929
91 | S117_THYROID | 0.612
92 | SAOS2_BONE | 0.466
93 | SBC5_LUNG | 0.687
94 | SCABER_URINARY_TRACT | 0.714
95 | SCC3_HAEMATOPOIETIC_AND_LYMPHOID_TISSUE | 1
96 | SCC9_UPPER_AERODIGESTIVE_TRACT | 0.687
97 | SCC25_UPPER_AERODIGESTIVE_TRACT | 1
98 | SCLC21H_LUNG | 1
99 | SEM_HAEMATOPOIETIC_AND_LYMPHOID_TISSUE | 0.347
100 | SF126_CENTRAL_NERVOUS_SYSTEM | 0.521
101 | SF295_CENTRAL_NERVOUS_SYSTEM | 0.833
102 | SF539_CENTRAL_NERVOUS_SYSTEM | 1
103 | SG231_BILIARY_TRACT | 0.46
104 | SH4_SKIN | 0.409
105 | SH10TC_STOMACH | 0.626
106 | SHMAC5_PROSTATE | 1
107 | SHP77_LUNG | 0.641
108 | SIMA_AUTONOMIC_GANGLIA | 0.3 ± 0.073
109 | SISO_CERVIX | 0.987
110 | SJSA1_BONE | 0.673 ± 0.46
